Measured values published in patent publication US20230321171A1, “ANTI-COCCIDIAL COMPOSITION COMPRISING MANGOSTEEN AND USES THEREOF” (CJ CHEILJEDANG CORPORATION, priority 2020, published 2023).

Experiments:
[1] = Broiler growth effect (daily weight gain) due to intake in feed; type: in vivo, Ross broilers; conditions: formulated feed 60 ppm for 7 days
Experimental: (§1) An efficacy evaluation test was performed in an animal experiment facility in Gyeongsangnam-do, South Korea. One-day-old female Ross broilers were individually weighed and randomly divided into groups to use in an experiment. Matters and conditions for experimental design were described in Table 16.
(§2) A breeding farm was managed according to the Korean poultry breeding management guidelines. Cages and the breeding farm were cleaned and disinfected before starting the test. The temperature of […] and the humidity of 40 to 50% of the breeding farm were maintained, and it was continuously monitored.
(§3) For the feed, Korea Feed A1-choi product was used, and each material (salinomycin (Cheil Bio Cheilsalino-60 product), xanthone (Sigma Aldrich X600 product), and the mangosteen extract prepared in Example 1-2 above) was added to the feed, respectively, at a concentration described in Table 17 below to be self-mixed. Antibiotics and supplements were not used in general feed and mixed feed, and no anticoccidial agent other than each material was added. Broilers were fed ad libitum throughout the experiment period. After putting 20 1-day-age broilers in cages randomly placed for each of the control group or test group and breeding, general feed was fed for 7 days, and then the mixed feed prepared above was ingested by dividing by control group or test group. The feed formulation administered to the control group (negative control group or positive control group) and test group was described in Table 17 below.
The body weight before feeding and on the 7th day after feeding the feed of Table 16 above into individuals was measured, and the difference was divided by the number of days to calculate the daily weight gain (ADG, g/d), and the result was shown in Table 18. For comparison between 6 treatment groups, Duncan post-test multiple comparison method was used, and statistical significance was verified using a SAS statistical program, and the result was shown in Table 18.

Eimeria tenella [2] = experiment: In vivo anticoccidial efficacy evaluation in broilers challenge-inoculated with Eimeria tenella; set-up: species or system Ross broilers
Experimental: as §1, with “An in vivo anticoccidial” for “An”, “2.” for “16.”
as §2
as §3, with “Al-choi” for “A1-choi”, “3” for “17”, “group.” for “group. The feed formulation administered to the control group (negative control group or positive control group) and test group was described in Table 17 below.”
The feed formulation administered to the control group (negative control group or positive control group) and test group and whether coccidiosis was induced by Eimeria tenella were described in Table 3 below. 20 1-day-old broilers were put in a cage randomly arranged for each test group, and after 7 days of feeding the general feed, the formulated feed as described in Table 3 was divided into each test group and ingested.
14-day-old broilers were orally inoculated with 10,000 oocysts (90% sporulated Eimeria tenella oocysts) per individual to induce coccidiosis.
The anticoccidial efficacy by test group designed in Example 1-3 above was shown as an anticoccidial index (ACI), and the anticoccidial index was calculated by Equation 2 below. The ACI score is out of 200 points, and the higher the ACI score, the more excellent the anticoccidial ability, and when it is 120 points or more to less than 140 points, it is determined that it is effective as an anticoccidial material, and when it is 140 points or more to less than 160 points, it is determined that it is excellent as an anticoccidial material, and when it is 160 points or more, it is determined that the anticoccidial effect is very excellent. (Luis Miguel De Pablos et al., Anticoccidial activity of maslinic acid against infection with Eimeria tenella in chickens, Parasitol Res, 2010)
Anticoccidial index (ACI)=(survival rate after challenge inoculation (%))+(daily weight gain compared to negative control group (RWG, %))−(lesion score×10)−(fecal oocyst excretion amount index) (Equation 2)
1) Survival rate: the number of dead individuals was recorded daily, and post mortem autopsy was performed to determine a cause of mortality, and the number of individuals who died due to causes other than coccidiosis was excluded. The survival rate (%) up to the 8th day after challenge inoculation was used for anticoccidial index calculation.
2) Daily weight gain: body weight was measured for each cage before challenge inoculation with a protozoan into an individual and at the 7th day after challenge inoculation, and the difference was divided by the number of days to calculate the daily weight gain (ADG, g/d). ‘Daily weight gain compared to the negative control group (RWG, %)’which was calculated by dividing the daily weight gain (ADG, average daily gain; g/d) of each experimental group by the weight gain (ADG, g/d) of the non-infected negative control group and multiplying by 100 was used for anticoccidial index calculation. […]

Eimeria acervulina = experiment: Protozoan (sporozoite) direct killing ability, Eimeria acervulina; type: cell-based; conditions: for Eimeria acervulina protozoal death rate (%): compared to PBS-treated negative control group; for Minimum concentration for killing 100% protozoa (ppm), Eimeria acervulina: tested 1 to 500 ppm
Experimental: (§4) In the present example, protozoan (sporozoite) direct killing ability evaluation was conducted against 3 representative Eimeria kinds known to be infected in most farms (E. tenella, E. acervulina, E. maxima).
(§5) A certain amount of oocysts of each protozoan was put in a tube containing glass beads and pulverized, and then to remove the crushed oocyst cell wall and other debris, internal sporocysts were purified using the percoll density gradient, and washed with PBS solution. A reagent comprising sodium taurocholic acid (Sigma aldrich, USA) and trypsin (Gibco, USA), respectively, was treated to sporocysts of Eimeria tenella, Eimeria acervulina and Eimeria maxima for excystation and they were incubated, and then they were washed with PBS solution once and protozoa were obtained.
(§6) After reacting the mangosteen pericarp extract, epicatechin, alpha-mangostin, xanthone and anticoccidial agents, salinomycin and diclazuril (hereinafter, material) with 3 kinds of Eimeria protozoa at various concentrations of 1 to 500 ppm, respectively, only alive protozoa (sporozoites) were counted through microscopic observation. Then, the death rate (%) of the protozoa when each material was treated compared to the PBS-treated negative control group was calculated and shown in Table 8 to Table 10 and Table 12, respectively, and the minimum concentration which directly killed the protozoa by 100% was shown in Table 11 below.

Eimeria maxima = experiment: Protozoan (sporozoite) direct killing ability, Eimeria maxima; type: cell-based; conditions: for Eimeria maxima protozoal death rate (%): compared to PBS-treated negative control group; for Minimum concentration for killing 100% protozoa (ppm), Eimeria maxima: tested 1 to 500 ppm
Experimental: as §4, §5, §6

Eimeria tenella [3] = experiment: Protozoan (sporozoite) direct killing ability, Eimeria tenella; type: cell-based; conditions: for Eimeria tenella protozoal death rate (%): compared to PBS-treated negative control group; for Minimum concentration for killing 100% protozoa (ppm), Eimeria tenella: tested 1 to 500 ppm; for Eimeria tenella protozoal death rate: Table 12 comparison with individual components
Experimental: as §4, §5, §6

[4] = test system: MDBK(Madin-Darby Bovine Kidney Epithelial Cells); experiment: Cytotoxicity, MTS analysis, MDBK; conditions: 3.1~500 ppm/well, 14 hours + 2 hours MTS, vs 5% DMSO treatment group
Source text: (§7) In the present example, using MTS analysis method (3-(4,5-[…])-5-(3-carboxymethoxyphenyl)-2-(4-sulfophenyl)-2H-tetrazolium, promega, USA), an effect on survival of cells of the mangosteen extract was investigated.
(§8) The cell lines utilized in cytotoxicity evaluation were (1) MDBK(Madin-Darby Bovine Kidney Epithelial Cells) and (2) RAW264.7(Mouse macrophage cell), and all of them were purchased from ATCC and used.
(§9) Each cell was aliquoted at a concentration of 1×10^5 cell/well in a 96-well cell culture plate, and cultured at 37° C. for 24 hours, and then each material (mangosteen extract, xanthone, alpha-mangostin and epicatechin) was treated by concentration (3.1˜500 ppm/well) and cultured at a temperature of 37° C.

Eimeria tenella [5] = experiment: Protozoan (sporozoite) direct killing ability, Eimeria tenella; type: cell-based; conditions: Table 15, method similar to Example 2-1
[6] = test system: RAW264.7(Mouse macrophage cell); experiment: Cytotoxicity, MTS analysis, RAW264.7; conditions: 3.1~500 ppm/well, 14 hours + 2 hours MTS, vs 5% DMSO treatment group
Source text: as §7, §8, §9

SMILES	Eimeria acervulina protozoal death rate (%) (Eimeria acervulina; 1 ppm)	Eimeria acervulina protozoal death rate (%) (Eimeria acervulina; 5 ppm)	Eimeria acervulina protozoal death rate (%) (Eimeria acervulina; 10 ppm)	Eimeria acervulina protozoal death rate (%) (Eimeria acervulina; 50 ppm)	Eimeria acervulina protozoal death rate (%) (Eimeria acervulina; 100 ppm)	Eimeria acervulina protozoal death rate (%) (Eimeria acervulina; 125 ppm)	Eimeria acervulina protozoal death rate (%) (Eimeria acervulina; 250 ppm)	Eimeria acervulina protozoal death rate (%) (Eimeria acervulina; 500 ppm)	Minimum concentration for killing 100% protozoa (ppm), Eimeria acervulina (Eimeria acervulina) [ppm]	Eimeria maxima protozoal death rate (%) (Eimeria maxima; 1 ppm)	Eimeria maxima protozoal death rate (%) (Eimeria maxima; 5 ppm)	Eimeria maxima protozoal death rate (%) (Eimeria maxima; 10 ppm)	Eimeria maxima protozoal death rate (%) (Eimeria maxima; 50 ppm)	Eimeria maxima protozoal death rate (%) (Eimeria maxima; 100 ppm)	Eimeria maxima protozoal death rate (%) (Eimeria maxima; 125 ppm)	Eimeria maxima protozoal death rate (%) (Eimeria maxima; 250 ppm)	Eimeria maxima protozoal death rate (%) (Eimeria maxima; 500 ppm)	Minimum concentration for killing 100% protozoa (ppm), Eimeria maxima (Eimeria maxima) [ppm]	Eimeria tenella protozoal death rate (%) (Eimeria tenella [3]; 1 ppm)	Eimeria tenella protozoal death rate (%) (Eimeria tenella [3]; 5 ppm)	further results
CC[C@@H](C(=O)[C@@H](C)[C@@H](O)[C@H](C)[C@@H]1O[C@@H]([C@@H](CC)C(=O)O)CC[C@@H]1C)[C@H]1O[C@]2(C=C[C@@H](O)[C@]3(CC[C@@](C)([C@H]4CC[C@](O)(CC)[C@H](C)O4)O3)O2)[C@H](C)C[C@@H]1C [Salinomycin, salinomycin]	0	0	0	0	60	73	100	100	250	0	0	0	0	59	65	97	100	500	0	0	Daily weight gain (ADG) [1]: 46.86 g/day; End-initial body weight (7 days, g) [1]: 328 g; End body weight ([1]; non-infected broilers): 526 g; Intermediate body weight (14-day-old, before challenge inoculation) (Eimeria tenella [2]; formulated feed 60 ppm from day 7, female Ross broilers): 455.9; Appendix lesion score (Eimeria tenella [2]; formulated feed 60 ppm, 8th day after challenge inoculation, scale of 0-4): 2.7; End body weight (21-day-old, on the 7th day of challenge inoculation) (Eimeria tenella [2]; formulated feed 60 ppm, 10,000 E. tenella oocysts oral at 14 days): 917.6; Day 14~Day 21 ADG (daily weight gain) (Eimeria tenella [2]; formulated feed 60 ppm, E. tenella infected broilers): 62.46 g/day; Anticoccidial index (ACI) (Eimeria tenella [2]; formulated feed 60 ppm, Equation 2, out of 200 points): 141; Oocyst excretion amount/gram (Eimeria tenella [2]; formulated feed 60 ppm, feces of 6~8th day of challenge inoculation, McMaster chamber): 1.30E+08 /gram; RWG (daily weight gain compared to the negative control group) (Eimeria tenella [2]; formulated feed 60 ppm, relative to non-infected negative control group): 94%; Eimeria tenella protozoal death rate (%) (Eimeria tenella [3]; 10 ppm): 0%; Eimeria tenella protozoal death rate (%) (Eimeria tenella [3]; 50 ppm): 0%; Eimeria tenella protozoal death rate (%) (Eimeria tenella [3]; 100 ppm): 46%; Eimeria tenella protozoal death rate (%) (Eimeria tenella [3]; 125 ppm): 74%; Eimeria tenella protozoal death rate (%) (Eimeria tenella [3]; 250 ppm): 100%; Eimeria tenella protozoal death rate (%) (Eimeria tenella [3]; 500 ppm): 100%; Minimum concentration for killing 100% protozoa (ppm), Eimeria tenella (Eimeria tenella [3]): 500 ppm
COc1c(O)cc2oc3cc(O)c(CC=C(C)C)c(O)c3c(=O)c2c1CC=C(C)C [Alpha-mangostin, alpha-mangostin]	–	–	–	–	–	–	–	–	–	–	–	–	–	–	–	–	–	–	–	–	Minimum concentrataion of cytotoxicity at which cells of 50% or more survive (ppm) [4]: ≥7.8 ppm; Minimum concentrataion of killing protozoa 100% (ppm) (Eimeria tenella [5]): ≥31.3 ppm; Minimum concentrataion of cytotoxicity at which cells of 50% or more survive (ppm) [6]: ≥15.6 ppm; Eimeria tenella protozoal death rate (Eimeria tenella [3]; 3.9 ppm): 23.3%; Eimeria tenella protozoal death rate (Eimeria tenella [3]; 7.8 ppm): 50%; Eimeria tenella protozoal death rate (Eimeria tenella [3]; 15.6 ppm): 93.3%
Oc1cc(O)c2c(c1)O[C@H](c1ccc(O)c(O)c1)[C@H](O)C2 [Epicatechin, epicatechin]	–	–	–	–	–	–	–	–	–	–	–	–	–	–	–	–	–	–	–	–	Minimum concentrataion of killing protozoa 100% (ppm) (Eimeria tenella [5]): ≥500 ppm; Eimeria tenella protozoal death rate (Eimeria tenella [3]; 3.9 ppm): 0%; Eimeria tenella protozoal death rate (Eimeria tenella [3]; 7.8 ppm): 0%; Eimeria tenella protozoal death rate (Eimeria tenella [3]; 15.6 ppm): 0%
N#CC(c1ccc(Cl)cc1)c1c(Cl)cc(-n2ncc(=O)[nH]c2=O)cc1Cl (centres unmarked) [Diclazuril, diclazuril]	0	0	0	0	0	23	12	44	500	0	0	0	0	0	0	16	30	>500	0	0	Eimeria tenella protozoal death rate (%) (Eimeria tenella [3]; 10 ppm): 0%; Eimeria tenella protozoal death rate (%) (Eimeria tenella [3]; 50 ppm): 0%; Eimeria tenella protozoal death rate (%) (Eimeria tenella [3]; 100 ppm): 0%; Eimeria tenella protozoal death rate (%) (Eimeria tenella [3]; 125 ppm): 0%; Eimeria tenella protozoal death rate (%) (Eimeria tenella [3]; 250 ppm): 35%; Eimeria tenella protozoal death rate (%) (Eimeria tenella [3]; 500 ppm): 44%; Minimum concentration for killing 100% protozoa (ppm), Eimeria tenella (Eimeria tenella [3]): >500 ppm
